Read-outs that look alike come from different tables or passages of the source.
What was measured:
hippocampal neurons = test: Aβ-induced neuronal cell death in hippocampal cell culture, Trypan Blue counting; format: cell-based, Wistar rat; settings: pre-aggregated Aβ(1-40) 25 μM, B12 50, 25 or 12.5 μM, 72 hours
Experimental: Neuronal Cell Culture Experiments. Neuronal cell culture experiments were conducted using methodologies described previously by Lee, et al in Cell, Vol. 111(2), pages 219-230 (2002); Lei, et al in EMBO J, Vol. 21(12), pages 2977-2989 (2002); Xin, et al in J Neurosci, Vol. 25(1), pages 139-48 (2005); and Xin, et al in European Journal of Neuroscience, Vol. 21(3), pages 622-636 (2005).
Briefly, hippocampal tissue was dissected from Wistar rat embryos (18 days gestation or E18) at 4° C. Dissociated hippocampal neurons were plated at a density of approximately 2.0×10^4 cells/cm^2 onto 35 mm culture dishes coated with poly-D-lysine. Neurons were matured in culture for 21 days in vitro in NEUROBASAL® media (Invitrogen) supplemented with B27 (2%), bFGF2 (2 ng/mL) and L-glutamine (0.5 mM). The Aβ(1-40) was dissolved in DMSO, followed by dilution into culture medium (final DMSO concentration was 1%), and incubation at 37° C. for three days to form Aβ(1-40) oligomeric species. […]
Trypan Blue Staining and Cell Counting. […] Five random fields, one from each corner and one from the center of the dish, were counted for both live and dead cells at 63× magnification to obtain a percentage of cell death. […]
The physiological relevance of the B12/Aβ interaction was evaluated using neuronal cell culture experiments. […]

Aβ(1-40) peptide [1] = target: T1, Aβ(1-40) peptide (Homo sapiens, UniProt P05067); test: Intrinsic tyrosine fluorescence titration of Aβ(1-40) with vitamin B12; settings: 50 μM in PBS, 25° C., 1:1 binding stoichiometry, read-out: binding constant, KD
T1 construct: Synthetic Aβ(1-40) peptide was purchased from Biopeptide, Inc; purchased Biopeptide, Inc; host or cells: chemical synthesis
T1 sequence (P05067 672-711 limits assumed): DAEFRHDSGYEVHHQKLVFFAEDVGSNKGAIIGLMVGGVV
Experimental: Samples of Aβ(1-40) were reconstituted in phosphate buffer saline (PBS) (137 mM NaCl, 2.7 mM KCl, 10 mM Na2HPO4, 2 mM KH2PO4, pH 7.4), except in surface plasmon resonance experiments, as described below. Immediately after reconstitution into PBS, the pH of the solution was adjusted to 10, allowing for solubilization of the peptide. The pH was then readjusted to 7.4, followed by filtration through a 0.22 μm supor membrane filter. Concentrations of Aβ(1-40) were determined using UV-Vis spectroscopy (Cary 300 spectrophotometer, Varian, Inc) and an extinction coefficient of 1,490 M^−1 cm^−1 at 280 nm. Aβ(1-40) samples used in fluorescence experiments to examine peptide/B12 binding included freshly prepared, monomeric Aβ species and “aged” Aβ, incubated for seven days and containing high-molecular weight species.
Preparation of Vitamin B12 Samples. […] Concentrations of B12 were determined using UV-Vis spectroscopy (Cary300 spectrophotometer, Varian, Inc) and an extinction coefficient of 4,900 M^−1 cm^−1 at 525 nm.
Intrinsic Tyrosine Fluorescence Spectroscopy Experiments on Amyloid-Beta Peptide in the Presence of Vitamin B12. Intrinsic tyrosine fluorescence was measured as previously described by Lakowicz in Principles of Fluorescence Spectroscopy. […] The binding constant, KD, was calculated using equation (1) in SigmaPlot 9.0 (Systat Software, Inc.) assuming 1:1 binding stoichiometry. […]

Aβ(1-40) peptide [2] = target: T1, Aβ(1-40) peptide; test: Thioflavin T fluorescence, fibril formation by Aβ(1-40); format: biochemical; settings: Aβ(1-40) 30 μM, 37° C.
Experimental: Thioflavin T Fluorescence Spectroscopy Experiments on Amyloid-Beta Peptide in the Presence of Vitamin B12. The Fluorescence signal was measured as previously described using a Biotek Flx800 fluorescence microplate reader. Aβ(1-40) peptide samples (30 μM) were incubated at 37° C. in the presence or absence of B12. Following incubation, ThT was added to a final concentration of 10 μM as a probe for fibril formation by Aβ(1-40). All fluoresce readings were corrected for 10 mM sodium phosphate buffer contribution. Thioflavin T (ThT) (Sigma Aldrich) was reconstituted in Nanopure water, aliquoted, and stored at −20° C. Concentration of ThT was determined using UV-Vis spectroscopy (Cary300 spectrophotometer, Varian, Inc) and an extinction coefficient of 36,000 M^−1 cm^−1 at 412 nm.

Aβ(1-40) = target: T2, Aβ(1-40) (Homo sapiens, UniProt P05067); test: Surface plasmon resonance (Biacore T-200), immobilized Aβ(1-40); settings: freshly prepared Aβ(1-40) immobilized on CM5 chip, 25° C., fit to 1:1 binding model; read-out: binding constant (SPR)
T2 construct: Synthetic Aβ(1-40) peptide was purchased from Biopeptide, Inc; purchased Biopeptide, Inc; host or cells: chemical synthesis
T2 sequence (P05067 672-711 limits assumed): as above
Experimental: Surface Plasmon Resonance (SPR) Experiments. The binding of Aβ(1-40) and vitamin B12 was analyzed by SPR using a Biacore T-200 optical biosensor (Biacore/GE Healthcare). The Aβ peptide was immobilized on CM5 sensor chips using amine coupling chemistry. Briefly, the carboxymethyl dextran surface of a CM5 sensor chip was activated with a 1:1 mixture of 0.4 M 1-ethyl-3-(3-dimethylaminopropyl)-carbodiimide (EDC) and 0.1 M N-hydroxysuccinimide (NHS) at 25° C. A peptide surface (400-800 RU) was created by pulsing Aβ in 10 mM sodium acetate at pH 4.5 over the flow cell. The remaining binding sites on the dextran surface were blocked with […], pH 8.5. A reference surface was activated and blocked as outlined above.
Binding experiments were carried out using HBS-EP+ running buffer (0.1 M Hepes, 1.5 M NaCl, 30 mM EDTA, 0.05% v/v surfactant P-20, pH 7.4) at 25° C. All components were 0.22 μm-filtered prior to use. […] Data were analyzed using T200 BiaEvaluation 1.0 (Biacore) software and fit to a 1:1 binding model.
In the SPR experiments, freshly prepared Aβ(1-40) was immobilized on a chip. […] Referring to FIG. 7, a concentration dependent change in the refractive index at the surface of the chip was detected. This change, reflective of the Aβ peptide/B12 interaction, was monitored in real time. […]

C/C1=C2/[N-][C@H]([C@H](CC(N)=O)[C@@]2(C)CCC(=O)NC[C@@H](C)OP(=O)([O-])O[C@H]2[C@@H](O)[C@@H](n3cnc4cc(C)c(C)cc43)O[C@@H]2CO)[C@]2(C)N=C(/C(C)=C3N=C(/C=C4N=C1[C@@H](CCC(N)=O)C\4(C)C)[C@@H](CCC(N)=O)[C@]\3(C)CC(N)=O)[C@@H](CCC(N)=O)[C@]2(C)CC(N)=O.[Co+3].[OH-] [vitamin B12, hydroxocobalamin]
neuronal cell death upon addition of amyloid-beta peptide (hippocampal neurons): alleviated
Kd (Aβ(1-40) peptide [1]; monomeric (freshly prepared) Aβ(1-40)): 87 ± 2.7 µM
Kd (Aβ(1-40) peptide [1]; self-associated (aged, seven days) Aβ(1-40)): 96.1 ± 3.5 µM
ThT fluorescence after addition to pre-formed Aβ(1-40) aggregates (fibril dissociation) (Aβ(1-40) peptide [2]; B12 added to fibrils formed in its absence): reduction of the ThT fluorescence
ThT fluorescence signal of Aβ(1-40) incubated in the presence of vitamin B12 (self-association) (Aβ(1-40) peptide [2]; incubated with B12): no increase in the ThT fluorescence signal
Kd (Aβ(1-40)): 132 µM
